Data reported in the supplement of paper PMC10883282.
± gives the standard deviation of the averaged measurements.

Tested on: HT1080
Assay: relative viability vs DMSO control (72 h) (fraction); higher = more viable cells
Method in brief: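 Densities for seeding sarcoma cell lines into 384-well plates were set to give 80–90% confluence. After 24 h, 2.5 µl of serially diluted compound from source plates of 10 mM to 0.0002 mM went in, and plates stayed 72 h at 37 °C in 5% CO2 with 0.1% DMSO vehicle and a 5 µM positive control. Percent growth from ATPLite readings, averaged over up to triplicate wells, served as relative viability, rescaled so 1 means full and 0 means none.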

SMILES	relative viability (0.00017 µM)	relative viability (0.00051 µM)	relative viability (0.00152 µM)	relative viability (0.00457 µM)	relative viability (0.01372 µM)	relative viability (0.04115 µM)	relative viability (0.1235 µM)	relative viability (0.3704 µM)	relative viability (1.111 µM)	relative viability (3.333 µM)	relative viability (10 µM)	relative viability (2 pM)	relative viability (5 pM)	relative viability (15 pM)	relative viability (50 pM)	relative viability (0.00014 µM)	relative viability (0.00041 µM)	relative viability (0.0012 µM)	relative viability (0.0037 µM)	relative viability (0.011 µM)	relative viability (200 fM)	relative viability (600 fM)
N#CC[C@H](C1CCCC1)n1cc(-c2ncnc3[nH]ccc23)cn1 [Ruxolitinib]	1.04 ± 0.037	1.034 ± 0.0099	1.07 ± 0.012	1.05 ± 0.068	1.06 ± 0.049	1.03 ± 0.017	1.05 ± 0.027	1.04 ± 0.04	1.04 ± 0.021	1.04 ± 0.035	1.02 ± 0.087	–	–	–	–	–	–	–	–	–	–	–
Cc1cc(C)c(/C=C2\C(=O)Nc3ccccc32)[nH]1 [Semaxanib]	0.923 ± 0.051	0.964 ± 0.038	0.94 ± 0.023	0.945 ± 0.018	0.926 ± 0.022	0.946 ± 0.049	0.893 ± 0.059	0.921 ± 0.018	0.928 ± 0.023	0.939 ± 0.034	0.888 ± 0.065	–	–	–	–	–	–	–	–	–	–	–
Cc1nc(-c2cn3c(n2)-c2ccc(-c4cnn(C(C)(C)C(N)=O)c4)cc2OCC3)n(C(C)C)n1 [Taselisib]	1.016 ± 0.01	1.01 ± 0.017	1.02 ± 0.015	1.03 ± 0.056	1.02 ± 0.011	1.02 ± 0.016	1.034 ± 0.0069	1.04 ± 0.018	1.02 ± 0.052	1.01 ± 0.012	0.738 ± 0.0029	–	–	–	–	–	–	–	–	–	–	–
CN1CCC(COc2cnc(-c3cccc(Cn4nc(-c5cccc(C#N)c5)ccc4=O)c3)nc2)CC1 [Tepotinib]	1.1 ± 0.066	1.09 ± 0.025	1.12 ± 0.013	1.081 ± 0.0059	1.092 ± 0.0041	1.07 ± 0.016	1.07 ± 0.043	1.07 ± 0.059	1.04 ± 0.034	1.032 ± 0.0023	0.8618 ± 0.0058	–	–	–	–	–	–	–	–	–	–	–
COc1cc2nccc(Oc3ccc(NC(=O)Nc4cc(C)on4)c(Cl)c3)c2cc1OC [Tivozanib]	1.04 ± 0.027	1.06 ± 0.021	1.06 ± 0.032	1.07 ± 0.026	1.046 ± 0.01	1.06 ± 0.02	1.05 ± 0.019	1.07 ± 0.02	1.1 ± 0.04	1.12 ± 0.015	0.967 ± 0.021	–	–	–	–	–	–	–	–	–	–	–
C[C@@H]1CCN(C(=O)CC#N)C[C@@H]1N(C)c1ncnc2[nH]ccc12 [Tofacitinib]	1.06 ± 0.044	1.1 ± 0.035	1.07 ± 0.025	1.077 ± 0.0086	1.1 ± 0.022	1.08 ± 0.018	1.08 ± 0.085	1.1 ± 0.04	1.07 ± 0.012	1.03 ± 0.027	1.02 ± 0.024	–	–	–	–	–	–	–	–	–	–	–
COc1cc2c(cc1O)CCN[C@]21CS[C@@H]2c3c(OC(C)=O)c(C)c4c(c3[C@H](COC1=O)N1[C@@H]2[C@H]2c3c(cc(C)c(OC)c3O)C[C@@H]([C@@H]1O)N2C)OCO4 [Trabectedin]	–	–	–	–	–	–	–	–	–	–	–	1.13 ± 0.038	1.12 ± 0.048	1.09 ± 0.047	1.094 ± 0.0095	1.11 ± 0.031	1.077 ± 0.0069	0.023 ± 0.0022	0.21 ± 0.0023	0.159 ± 0.005	1.08 ± 0.032	1.14 ± 0.017
CC(=O)Nc1cccc(-n2c(=O)n(C3CC3)c(=O)c3c(Nc4ccc(I)cc4F)n(C)c(=O)c(C)c32)c1 [Trametinib]	1.1 ± 0.022	1.119 ± 0.0055	1.039 ± 0.0014	0.981 ± 0.041	0.638 ± 0.029	0.537 ± 0.017	0.478 ± 0.032	0.377 ± 0.011	0.351 ± 0.02	0.334 ± 0.018	0.296 ± 0.014	–	–	–	–	–	–	–	–	–	–	–
Cc1cc(Nc2ncnc3ccc(NC4=NC(C)(C)CO4)cc23)ccc1Oc1ccn2ncnc2c1 [Tucatinib]	1.06 ± 0.043	1.071 ± 0.0057	1.108 ± 0.0063	1.09 ± 0.054	1.1 ± 0.027	1.0875 ± 7.1e-05	1.08 ± 0.032	1.067 ± 0.01	1.05 ± 0.011	1.06 ± 0.026	0.948 ± 0.012	–	–	–	–	–	–	–	–	–	–	–
COc1cc2/c(=N/c3ccc(Br)cc3F)nc[nH]c2cc1OCC1CCN(C)CC1 [Vandetanib]	1.02 ± 0.015	1.02 ± 0.026	1.03 ± 0.026	1.03 ± 0.022	1.03 ± 0.026	1.02 ± 0.034	1.02 ± 0.043	1.03 ± 0.031	1.02 ± 0.02	0.962 ± 0.04	0.326 ± 0.022	–	–	–	–	–	–	–	–	–	–	–
CCCS(=O)(=O)Nc1ccc(F)c(C(=O)c2c[nH]c3ncc(-c4ccc(Cl)cc4)cc23)c1F [Vemurafenib]	1.1 ± 0.032	1.07 ± 0.049	1.09 ± 0.05	1.08 ± 0.031	1.08 ± 0.044	1.07 ± 0.045	1.07 ± 0.043	1.08 ± 0.04	1.13 ± 0.031	1.04 ± 0.023	0.663 ± 0.25	–	–	–	–	–	–	–	–	–	–	–
C[C@@H](c1ccc2nccn2c1)n1nnc2ncc(-c3cnn(C)c3)nc21 [Volitinib]	1.02 ± 0.043	1.06 ± 0.016	1.07 ± 0.02	1.06 ± 0.031	1.06 ± 0.029	1.04 ± 0.011	1.02 ± 0.022	1.05 ± 0.034	1.06 ± 0.012	0.992 ± 0.016	0.948 ± 0.053	–	–	–	–	–	–	–	–	–	–	–
C=CC(=O)N1CCC([C@@H]2CCNc3c(C(N)=O)c(-c4ccc(Oc5ccccc5)cc4)nn32)CC1 [Zanubrutinib]	1.04 ± 0.022	1.05 ± 0.022	1.04 ± 0.04	1.03 ± 0.024	1.03 ± 0.026	1.03 ± 0.031	1.03 ± 0.028	1.05 ± 0.071	1.017 ± 0.0087	1.02 ± 0.033	1.02 ± 0.026	–	–	–	–	–	–	–	–	–	–	–
